Experimental data reported in PubChem BioAssay (NCI).
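1) Cells in 96-well plates. 2) Compound, 48 h, 5 concentrations. 3) Linear interpolation between surrounding doses. 4) Unreached endpoint = highest concentration. TGI marks complete inhibition of growth.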

What was measured:
Assay in all cases: inhibition of tumour cell growth, NCI panel, 48 h
XF 498 CNS = system: XF 498 CNS
NCI-H460 lung = system: NCI-H460 lung
RXF 393 renal = system: RXF 393 renal
MALME-3M melanoma = system: MALME-3M melanoma
SF-539 CNS = system: SF-539 CNS
SK-MEL-2 melanoma = system: SK-MEL-2 melanoma
SK-MEL-5 melanoma = system: SK-MEL-5 melanoma
TK-10 renal = system: TK-10 renal
HOP-92 NSCLC = system: HOP-92 NSCLC
HT29 colon = system: HT29 colon
SN12C renal = system: SN12C renal
RPMI-8226 leukemia = system: RPMI-8226 leukemia
UO-31 renal = system: UO-31 renal
HL-60(TB) leukemia = system: HL-60(TB) leukemia
HCT-116 colon = system: HCT-116 colon
NCI-H23 lung = system: NCI-H23 lung
SR leukemia = system: SR leukemia
LOX IMVI melanoma = system: LOX IMVI melanoma
HOP-18 NSCLC = system: HOP-18 NSCLC
SW-620 colon = system: SW-620 colon
ACHN renal = system: ACHN renal
LXFL 529 NSCLC = system: LXFL 529 NSCLC
DMS 114 small cell lung = system: DMS 114 small cell lung
A498 renal = system: A498 renal
MOLT-4 leukemia = system: MOLT-4 leukemia
SNB-19 CNS = system: SNB-19 CNS
A549 NSCLC = system: A549 NSCLC
SNB-75 CNS = system: SNB-75 CNS
KM20L2 colon = system: KM20L2 colon
EKVX NSCLC = system: EKVX NSCLC
COLO 205 colon = system: COLO 205 colon
KM12 colon = system: KM12 colon
OVCAR-3 ovarian = system: OVCAR-3 ovarian
SK-MEL-28 melanoma = system: SK-MEL-28 melanoma
OVCAR-4 ovarian = system: OVCAR-4 ovarian
HCC-2998 colon = system: HCC-2998 colon
SF-295 CNS = system: SF-295 CNS
SF-268 CNS = system: SF-268 CNS
HOP-62 NSCLC = system: HOP-62 NSCLC
UACC-62 melanoma = system: UACC-62 melanoma
M19-MEL melanoma = system: M19-MEL melanoma
SK-OV-3 ovarian = system: SK-OV-3 ovarian
DLD-1 colon = system: DLD-1 colon
NCI-H226 lung = system: NCI-H226 lung
U251 CNS = system: U251 CNS
CAKI-1 renal = system: CAKI-1 renal
786-0 renal = system: 786-0 renal
OVCAR-5 ovarian = system: OVCAR-5 ovarian
IGROV1 ovarian = system: IGROV1 ovarian
SNB-78 CNS = system: SNB-78 CNS
DMS 273 small cell lung = system: DMS 273 small cell lung
CCRF-CEM leukemia = system: CCRF-CEM leukemia
M14 melanoma = system: M14 melanoma
UACC-257 melanoma = system: UACC-257 melanoma
K-562 leukemia = system: K-562 leukemia
HCT-15 colon = system: HCT-15 colon
OVCAR-8 ovarian = system: OVCAR-8 ovarian
NCI-H522 lung = system: NCI-H522 lung
RXF-631 renal = system: RXF-631 renal

O=C(O)C(=O)/C=C\c1ccc(Cl)cc1
TGI (XF 498 CNS): > 100 µM
TGI (NCI-H460 lung): > 100 µM
TGI (RXF 393 renal): > 100 µM
TGI (MALME-3M melanoma): > 100 µM
TGI (SF-539 CNS): > 100 µM
TGI (SK-MEL-2 melanoma): > 100 µM
TGI (SK-MEL-5 melanoma): > 100 µM
TGI (TK-10 renal): > 100 µM
TGI (HOP-92 NSCLC): > 100 µM
TGI (HT29 colon): > 100 µM
TGI (SN12C renal): > 100 µM
TGI (RPMI-8226 leukemia): > 100 µM
TGI (UO-31 renal): > 100 µM
TGI (HL-60(TB) leukemia): > 100 µM
TGI (HCT-116 colon): > 100 µM
TGI (NCI-H23 lung): > 100 µM
TGI (SR leukemia): > 100 µM
TGI (LOX IMVI melanoma): > 100 µM
TGI (HOP-18 NSCLC): > 100 µM
TGI (SW-620 colon): 27 µM
TGI (ACHN renal): > 100 µM
TGI (LXFL 529 NSCLC): > 100 µM
TGI (DMS 114 small cell lung): > 100 µM
TGI (A498 renal): > 100 µM
TGI (MOLT-4 leukemia): > 100 µM
TGI (SNB-19 CNS): > 100 µM
TGI (A549 NSCLC): > 100 µM
TGI (SNB-75 CNS): > 100 µM
TGI (KM20L2 colon): > 100 µM
TGI (EKVX NSCLC): > 100 µM
TGI (COLO 205 colon): > 100 µM
TGI (KM12 colon): > 100 µM
TGI (OVCAR-3 ovarian): > 100 µM
TGI (SK-MEL-28 melanoma): > 100 µM
TGI (OVCAR-4 ovarian): > 100 µM
TGI (HCC-2998 colon): > 100 µM
TGI (SF-295 CNS): > 100 µM
TGI (SF-268 CNS): > 100 µM
TGI (HOP-62 NSCLC): > 100 µM
TGI (UACC-62 melanoma): > 100 µM
TGI (M19-MEL melanoma): > 100 µM
TGI (SK-OV-3 ovarian): > 100 µM
TGI (DLD-1 colon): > 100 µM
TGI (NCI-H226 lung): > 100 µM
TGI (U251 CNS): > 100 µM
TGI (CAKI-1 renal): > 100 µM
TGI (786-0 renal): > 100 µM
TGI (OVCAR-5 ovarian): > 100 µM
TGI (IGROV1 ovarian): > 100 µM
TGI (SNB-78 CNS): > 100 µM
TGI (DMS 273 small cell lung): > 100 µM
TGI (CCRF-CEM leukemia): > 100 µM
TGI (M14 melanoma): > 100 µM
TGI (UACC-257 melanoma): > 100 µM
TGI (K-562 leukemia): > 100 µM
TGI (HCT-15 colon): > 100 µM
TGI (OVCAR-8 ovarian): > 100 µM
TGI (NCI-H522 lung): > 100 µM

NC(N)=Nc1nc2cc(N)ccc2o1
TGI (RXF-631 renal): > 100 µM
TGI (NCI-H460 lung): > 100 µM
TGI (MALME-3M melanoma): > 100 µM
TGI (SF-539 CNS): > 100 µM
TGI (SK-MEL-2 melanoma): > 100 µM
TGI (TK-10 renal): > 100 µM
TGI (HOP-92 NSCLC): > 100 µM
TGI (HT29 colon): > 100 µM
TGI (SN12C renal): > 100 µM
TGI (UO-31 renal): > 100 µM
TGI (HL-60(TB) leukemia): > 100 µM
TGI (HCT-116 colon): > 100 µM
TGI (NCI-H23 lung): > 100 µM
TGI (SR leukemia): > 100 µM
TGI (LOX IMVI melanoma): > 100 µM
TGI (HOP-18 NSCLC): > 100 µM
TGI (SW-620 colon): > 100 µM
TGI (ACHN renal): > 100 µM
TGI (A498 renal): > 100 µM
TGI (MOLT-4 leukemia): > 100 µM
TGI (SNB-19 CNS): > 100 µM
TGI (A549 NSCLC): > 100 µM
TGI (SNB-75 CNS): > 100 µM
TGI (KM20L2 colon): > 100 µM
TGI (EKVX NSCLC): > 100 µM
TGI (KM12 colon): > 100 µM
TGI (SK-MEL-28 melanoma): > 100 µM
TGI (OVCAR-4 ovarian): > 100 µM
TGI (HCC-2998 colon): > 100 µM
TGI (SF-295 CNS): > 100 µM
TGI (SF-268 CNS): > 100 µM
TGI (HOP-62 NSCLC): > 100 µM
TGI (UACC-62 melanoma): > 100 µM
TGI (M19-MEL melanoma): > 100 µM
TGI (SK-OV-3 ovarian): > 100 µM
TGI (DLD-1 colon): > 100 µM
TGI (NCI-H226 lung): > 100 µM
TGI (U251 CNS): > 100 µM
TGI (CAKI-1 renal): > 100 µM
TGI (786-0 renal): > 100 µM
TGI (SNB-78 CNS): > 100 µM
TGI (CCRF-CEM leukemia): > 100 µM
TGI (M14 melanoma): > 100 µM
TGI (UACC-257 melanoma): > 100 µM
TGI (K-562 leukemia): > 100 µM
TGI (HCT-15 colon): > 100 µM
TGI (OVCAR-8 ovarian): > 100 µM
TGI (NCI-H522 lung): > 100 µM

COc1cc2c3c(c1OC)C1(C=CC(=O)C=C1)CC3N(C(=O)OC(C)(C)C(Cl)(Cl)Cl)CC2 (stereo unspecified)
TGI (XF 498 CNS): 23.9 µM
TGI (NCI-H460 lung): 30.8 µM
TGI (RXF 393 renal): 18.5 µM
TGI (MALME-3M melanoma): 27.2 µM
TGI (SF-539 CNS): 30.4 µM
TGI (SK-MEL-2 melanoma): 25.2 µM
TGI (SK-MEL-5 melanoma): 20.7 µM
TGI (TK-10 renal): > 100 µM
TGI (HOP-92 NSCLC): 29.8 µM
TGI (HT29 colon): 24.4 µM
TGI (SN12C renal): 26.6 µM
TGI (RPMI-8226 leukemia): 9.04 µM
TGI (UO-31 renal): 28.5 µM
TGI (HL-60(TB) leukemia): 8.26 µM
TGI (HCT-116 colon): 19 µM
TGI (NCI-H23 lung): 32.4 µM
TGI (SR leukemia): 23.4 µM
TGI (LOX IMVI melanoma): 26.1 µM
TGI (HOP-18 NSCLC): 50.4 µM
TGI (SW-620 colon): 43.1 µM
TGI (LXFL 529 NSCLC): 82.9 µM
TGI (DMS 114 small cell lung): 22 µM
TGI (A498 renal): 31.9 µM
TGI (MOLT-4 leukemia): 17.9 µM
TGI (SNB-19 CNS): 32.2 µM
TGI (A549 NSCLC): 49.4 µM
TGI (SNB-75 CNS): 34.5 µM
TGI (KM20L2 colon): 25.2 µM
TGI (EKVX NSCLC): 45.2 µM
TGI (COLO 205 colon): 29 µM
TGI (KM12 colon): 23.2 µM
TGI (OVCAR-3 ovarian): 20.7 µM
TGI (OVCAR-4 ovarian): 40.3 µM
TGI (SF-295 CNS): 28.9 µM
TGI (SF-268 CNS): 31.8 µM
TGI (HOP-62 NSCLC): 31.9 µM
TGI (UACC-62 melanoma): 28.4 µM
TGI (M19-MEL melanoma): 24.3 µM
TGI (SK-OV-3 ovarian): 96.9 µM
TGI (DLD-1 colon): 23.5 µM
TGI (NCI-H226 lung): 33.1 µM
TGI (U251 CNS): 22.4 µM
TGI (CAKI-1 renal): 50.9 µM
TGI (786-0 renal): 28.8 µM
TGI (OVCAR-5 ovarian): 38.4 µM
TGI (IGROV1 ovarian): 41.9 µM
TGI (SNB-78 CNS): 33.8 µM
TGI (DMS 273 small cell lung): 24.5 µM
TGI (CCRF-CEM leukemia): 87.7 µM
TGI (M14 melanoma): 28.8 µM
TGI (UACC-257 melanoma): 26.2 µM
TGI (K-562 leukemia): 50.2 µM
TGI (HCT-15 colon): 23.6 µM
TGI (OVCAR-8 ovarian): 31.5 µM
TGI (NCI-H522 lung): 23.2 µM
